According to the kinase profiling compilation of Christmann-Franck et al. (2016):

Assays:
Test in all cases: radiometric filter-binding kinase assay, Kinase HotSpot
Settings in all cases: compound 0.5 µM; ATP 10 µM
DCLK2 (human) = DCLK2 (human) (UniProt Q8N568)
ULK2 (human) = ULK2 (human) (UniProt Q8IYT8)
RPS6KA1 KD1 KD2 (human) = RPS6KA1 KD1 KD2 (human) (UniProt Q15418)
EPHA1 (human) = EPHA1 (human) (UniProt P21709)
CSF1R (human) = CSF1R (human) (UniProt P07333)
PRKACA (human) = PRKACA (human) (UniProt P17612)
MYLK2 (human) = MYLK2 (human) (UniProt Q9H1R3)
FRK (human) = FRK (human) (UniProt P42685)
DSTYK (human) = DSTYK (human) (UniProt Q6XUX3)
CDC42BPA (human) = CDC42BPA (human) (UniProt Q5VT25)
ACVRL1 (human) = ACVRL1 (human) (UniProt P37023)
BRSK1 (human) = BRSK1 (human) (UniProt Q8TDC3)
MAP3K10 (human) = MAP3K10 (human) (UniProt Q02779)
INSRR (human) = INSRR (human) (UniProt P14616)
NEK9 (human) = NEK9 (human) (UniProt Q8TD19)
Chain of NEK9 (human) (Q8TD19 whole entry, looked up): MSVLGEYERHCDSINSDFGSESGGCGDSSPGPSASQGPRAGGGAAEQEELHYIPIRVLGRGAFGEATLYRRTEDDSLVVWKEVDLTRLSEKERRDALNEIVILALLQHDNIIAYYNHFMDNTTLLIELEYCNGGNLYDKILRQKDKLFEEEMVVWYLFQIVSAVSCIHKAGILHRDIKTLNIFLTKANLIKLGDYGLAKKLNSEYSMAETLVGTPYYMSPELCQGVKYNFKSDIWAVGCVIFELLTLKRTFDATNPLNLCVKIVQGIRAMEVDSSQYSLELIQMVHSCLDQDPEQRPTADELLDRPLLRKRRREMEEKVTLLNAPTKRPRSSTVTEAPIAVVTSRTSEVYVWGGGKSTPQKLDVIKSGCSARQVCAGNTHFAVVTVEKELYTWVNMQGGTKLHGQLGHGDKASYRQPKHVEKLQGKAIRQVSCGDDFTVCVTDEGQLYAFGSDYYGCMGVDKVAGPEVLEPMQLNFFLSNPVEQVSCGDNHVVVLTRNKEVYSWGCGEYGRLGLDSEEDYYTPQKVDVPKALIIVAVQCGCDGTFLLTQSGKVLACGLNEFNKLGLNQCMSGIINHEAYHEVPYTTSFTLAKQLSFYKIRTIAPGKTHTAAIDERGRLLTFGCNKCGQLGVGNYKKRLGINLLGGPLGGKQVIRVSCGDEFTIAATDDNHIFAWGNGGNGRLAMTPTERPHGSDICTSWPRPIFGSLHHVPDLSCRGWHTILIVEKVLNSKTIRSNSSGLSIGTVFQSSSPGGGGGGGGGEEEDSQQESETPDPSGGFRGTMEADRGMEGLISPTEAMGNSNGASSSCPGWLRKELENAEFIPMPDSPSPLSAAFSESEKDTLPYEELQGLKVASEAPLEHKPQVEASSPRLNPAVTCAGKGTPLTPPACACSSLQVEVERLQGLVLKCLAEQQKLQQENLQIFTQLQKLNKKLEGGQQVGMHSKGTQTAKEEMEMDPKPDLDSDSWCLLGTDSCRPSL

CDK2 CCNA2 (human) = CDK2 CCNA2 (human) (UniProt P24941+P20248)
GSK3A (human) = GSK3A (human) (UniProt P49840)
PAK6 (human) = PAK6 (human) (UniProt Q9NQU5)
RPS6KA3 KD1 KD2 (human) = RPS6KA3 KD1 KD2 (human) (UniProt P51812)
CAMKK2 (human) = CAMKK2 (human) (UniProt Q96RR4)
MARK3 (human) = MARK3 (human) (UniProt P27448)
MAPKAPK3 (human) = MAPKAPK3 (human) (UniProt Q16644)
PASK (human) = PASK (human) (UniProt Q96RG2)
ULK1 (human) = ULK1 (human) (UniProt O75385)
FGFR3 (human) = FGFR3 (human) (UniProt P22607)
Chain of FGFR3 (human) (P22607 whole entry, looked up): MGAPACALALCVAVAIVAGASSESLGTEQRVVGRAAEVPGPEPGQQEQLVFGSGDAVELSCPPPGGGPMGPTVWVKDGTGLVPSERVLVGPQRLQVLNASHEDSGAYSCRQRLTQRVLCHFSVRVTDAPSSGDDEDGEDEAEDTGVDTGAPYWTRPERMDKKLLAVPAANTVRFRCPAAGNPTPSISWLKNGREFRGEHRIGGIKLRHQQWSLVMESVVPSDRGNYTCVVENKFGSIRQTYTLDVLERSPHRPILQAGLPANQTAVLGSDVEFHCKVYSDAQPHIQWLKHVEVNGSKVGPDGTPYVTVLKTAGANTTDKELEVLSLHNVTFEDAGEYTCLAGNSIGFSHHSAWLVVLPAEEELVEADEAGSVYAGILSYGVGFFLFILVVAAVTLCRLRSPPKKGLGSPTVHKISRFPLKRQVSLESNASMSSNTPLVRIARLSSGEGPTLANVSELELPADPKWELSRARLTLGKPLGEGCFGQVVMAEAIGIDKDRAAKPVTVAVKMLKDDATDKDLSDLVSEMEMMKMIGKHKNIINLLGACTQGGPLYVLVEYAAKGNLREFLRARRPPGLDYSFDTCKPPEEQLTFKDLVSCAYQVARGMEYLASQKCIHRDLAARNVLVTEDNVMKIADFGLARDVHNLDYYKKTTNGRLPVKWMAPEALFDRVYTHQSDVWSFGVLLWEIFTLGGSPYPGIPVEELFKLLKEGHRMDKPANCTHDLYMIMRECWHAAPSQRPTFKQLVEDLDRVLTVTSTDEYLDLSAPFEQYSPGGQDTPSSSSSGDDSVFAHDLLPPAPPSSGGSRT

MAP2K1 (human) = MAP2K1 (human) (UniProt Q02750)
LTK (human) = LTK (human) (UniProt P29376)
Chain of LTK (human) (P29376 whole entry, looked up): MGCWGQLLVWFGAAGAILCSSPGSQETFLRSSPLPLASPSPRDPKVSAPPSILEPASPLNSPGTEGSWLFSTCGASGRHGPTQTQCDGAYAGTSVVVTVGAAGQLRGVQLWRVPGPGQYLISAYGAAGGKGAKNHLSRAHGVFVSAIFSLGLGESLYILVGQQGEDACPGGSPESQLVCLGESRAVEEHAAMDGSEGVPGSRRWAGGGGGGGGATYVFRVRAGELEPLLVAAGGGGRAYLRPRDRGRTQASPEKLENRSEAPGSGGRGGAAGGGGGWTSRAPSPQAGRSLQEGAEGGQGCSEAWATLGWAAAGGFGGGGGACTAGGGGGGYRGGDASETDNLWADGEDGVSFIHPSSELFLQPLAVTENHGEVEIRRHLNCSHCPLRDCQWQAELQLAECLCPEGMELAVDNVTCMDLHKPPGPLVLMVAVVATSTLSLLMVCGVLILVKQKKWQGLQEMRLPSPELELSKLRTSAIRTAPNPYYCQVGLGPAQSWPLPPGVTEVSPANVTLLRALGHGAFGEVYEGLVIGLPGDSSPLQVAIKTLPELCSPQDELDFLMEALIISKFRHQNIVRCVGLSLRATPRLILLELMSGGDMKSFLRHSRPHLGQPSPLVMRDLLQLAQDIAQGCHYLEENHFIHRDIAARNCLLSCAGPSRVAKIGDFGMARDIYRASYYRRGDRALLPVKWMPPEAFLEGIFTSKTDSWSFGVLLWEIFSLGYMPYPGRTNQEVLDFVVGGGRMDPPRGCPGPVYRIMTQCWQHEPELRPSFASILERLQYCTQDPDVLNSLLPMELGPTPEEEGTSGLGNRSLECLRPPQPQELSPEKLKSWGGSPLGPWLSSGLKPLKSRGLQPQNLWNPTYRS

MAP2K2 (human) = MAP2K2 (human) (UniProt P36507)
STK16 (human) = STK16 (human) (UniProt O75716)
EPHB2 (human) = EPHB2 (human) (UniProt P29323)
BRSK2 (human) = BRSK2 (human) (UniProt Q8IWQ3)
LRRK2 (human) = LRRK2 (human) (UniProt Q5S007)
MAPK13 (human) = MAPK13 (human) (UniProt O15264)
EPHB3 (human) = EPHB3 (human) (UniProt P54753)
Chain of EPHB3 (human) (P54753 whole entry, looked up): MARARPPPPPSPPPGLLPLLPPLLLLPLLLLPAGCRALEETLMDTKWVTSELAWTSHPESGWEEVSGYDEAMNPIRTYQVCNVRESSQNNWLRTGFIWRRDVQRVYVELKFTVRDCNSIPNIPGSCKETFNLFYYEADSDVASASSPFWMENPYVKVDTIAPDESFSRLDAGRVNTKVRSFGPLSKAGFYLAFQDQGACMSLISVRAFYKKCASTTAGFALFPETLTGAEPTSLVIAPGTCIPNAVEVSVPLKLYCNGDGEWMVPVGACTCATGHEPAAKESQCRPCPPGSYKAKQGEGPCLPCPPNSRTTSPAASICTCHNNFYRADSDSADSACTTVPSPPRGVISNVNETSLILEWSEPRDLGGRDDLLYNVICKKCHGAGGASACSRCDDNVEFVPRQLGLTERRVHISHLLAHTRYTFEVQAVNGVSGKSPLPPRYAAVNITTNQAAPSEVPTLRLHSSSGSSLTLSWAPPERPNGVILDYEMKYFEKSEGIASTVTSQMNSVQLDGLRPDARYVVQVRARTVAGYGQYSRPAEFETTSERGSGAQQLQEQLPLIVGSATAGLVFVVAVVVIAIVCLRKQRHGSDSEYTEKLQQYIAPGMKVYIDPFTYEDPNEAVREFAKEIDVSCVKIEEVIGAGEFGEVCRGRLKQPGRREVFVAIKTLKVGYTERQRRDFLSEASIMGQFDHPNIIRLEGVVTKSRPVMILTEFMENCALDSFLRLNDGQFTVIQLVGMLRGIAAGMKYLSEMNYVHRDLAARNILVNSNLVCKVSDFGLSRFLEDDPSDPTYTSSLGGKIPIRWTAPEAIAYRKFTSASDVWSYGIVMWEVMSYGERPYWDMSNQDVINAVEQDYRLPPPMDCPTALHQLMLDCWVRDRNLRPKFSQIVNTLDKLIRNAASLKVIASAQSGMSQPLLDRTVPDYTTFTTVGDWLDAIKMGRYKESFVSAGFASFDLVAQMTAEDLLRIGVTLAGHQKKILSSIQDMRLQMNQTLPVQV

MAP4K2 (human) = MAP4K2 (human) (UniProt Q12851)
PIM2 (human) = PIM2 (human) (UniProt Q9P1W9)
AKT1 (human) = AKT1 (human) (UniProt P31749)
Chain of AKT1 (human) (P31749 whole entry, looked up): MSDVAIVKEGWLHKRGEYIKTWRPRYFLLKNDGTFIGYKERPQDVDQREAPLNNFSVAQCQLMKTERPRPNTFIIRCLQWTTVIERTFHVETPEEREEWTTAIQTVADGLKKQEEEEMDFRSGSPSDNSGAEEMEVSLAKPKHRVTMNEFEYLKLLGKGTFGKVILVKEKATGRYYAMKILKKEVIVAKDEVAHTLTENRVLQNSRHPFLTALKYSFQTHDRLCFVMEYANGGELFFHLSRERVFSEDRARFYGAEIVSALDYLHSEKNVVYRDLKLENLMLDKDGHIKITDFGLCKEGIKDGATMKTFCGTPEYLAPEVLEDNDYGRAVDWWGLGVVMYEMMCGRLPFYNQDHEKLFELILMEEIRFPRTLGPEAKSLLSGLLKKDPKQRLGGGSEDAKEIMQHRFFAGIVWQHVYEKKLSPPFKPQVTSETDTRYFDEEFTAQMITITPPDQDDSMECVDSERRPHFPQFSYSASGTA

BLK (human) = BLK (human) (UniProt P51451)
CLK2 (human) = CLK2 (human) (UniProt P49760)
CDK5 CDK5R1 p35 (human) = CDK5 CDK5R1 p35 (human) (UniProt Q00535+Q15078)
PHKG1 (human) = PHKG1 (human) (UniProt Q16816)

Chain of DCLK2 (human) (Q8N568 whole entry, looked up): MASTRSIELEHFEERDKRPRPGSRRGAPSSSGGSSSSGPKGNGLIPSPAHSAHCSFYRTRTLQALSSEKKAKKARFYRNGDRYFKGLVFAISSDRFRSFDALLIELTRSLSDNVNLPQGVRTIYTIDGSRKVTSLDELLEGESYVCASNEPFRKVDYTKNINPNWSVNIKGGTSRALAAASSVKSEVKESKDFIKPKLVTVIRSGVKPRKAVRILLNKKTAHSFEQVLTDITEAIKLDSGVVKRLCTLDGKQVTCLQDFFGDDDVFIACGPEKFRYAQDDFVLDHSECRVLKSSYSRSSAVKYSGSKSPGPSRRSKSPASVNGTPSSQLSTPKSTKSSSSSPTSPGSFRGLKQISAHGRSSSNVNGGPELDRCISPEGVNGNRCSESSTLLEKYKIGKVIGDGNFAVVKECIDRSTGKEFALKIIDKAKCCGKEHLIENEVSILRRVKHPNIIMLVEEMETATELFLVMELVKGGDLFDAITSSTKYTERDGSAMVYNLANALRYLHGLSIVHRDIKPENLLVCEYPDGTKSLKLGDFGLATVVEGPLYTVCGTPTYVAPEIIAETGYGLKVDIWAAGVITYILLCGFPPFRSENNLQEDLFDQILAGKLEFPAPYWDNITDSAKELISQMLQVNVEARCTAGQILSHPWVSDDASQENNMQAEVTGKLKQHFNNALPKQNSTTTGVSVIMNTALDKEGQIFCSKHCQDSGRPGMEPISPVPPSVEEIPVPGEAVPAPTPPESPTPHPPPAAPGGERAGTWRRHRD

Q: For `O=C(Nc1cccc(Nc2nccc(Nc3cccc(C(F)(F)F)c3)n2)c1)C1CC1`, which residual activity (DCLK2 (human)) is on record?
A: 97.4%

Q: What about the residual activity (ULK2 (human)) of the same compound?
A: 107%

Q: What about the residual activity (RPS6KA1 KD1 KD2 (human)) of the same compound?
A: 92.8%

Q: What about the residual activity (EPHA1 (human)) of the same compound?
A: 81.8%

Q: And the residual activity (CSF1R (human))?
A: 63.1%

Q: What about the residual activity (PRKACA (human)) of the same compound?
A: 91.7%

Q: And the residual activity (MYLK2 (human))?
A: 93.6%

Q: What about the residual activity (FRK (human)) of the same compound?
A: 92.2%

Q: And the residual activity (DSTYK (human))?
A: 93.8%

Q: And the residual activity (CDC42BPA (human))?
A: 100%

Q: What about the residual activity (ACVRL1 (human)) of the same compound?
A: 84.6%

Q: What about the residual activity (BRSK1 (human)) of the same compound?
A: 97.1%

Q: What about the residual activity (MAP3K10 (human)) of the same compound?
A: 96.4%

Q: What about the residual activity (INSRR (human)) of the same compound?
A: 89.9%

Q: And the residual activity (NEK9 (human))?
A: 102%

Q: And the residual activity (CDK2 CCNA2 (human))?
A: 98.2%

Q: And the residual activity (GSK3A (human))?
A: 95%

Q: What about the residual activity (PAK6 (human)) of the same compound?
A: 100%

Q: And the residual activity (RPS6KA3 KD1 KD2 (human))?
A: 100%

Q: And the residual activity (CAMKK2 (human))?
A: 99.5%

Q: And the residual activity (MARK3 (human))?
A: 102%

Q: What about the residual activity (MAPKAPK3 (human)) of the same compound?
A: 93%

Q: And the residual activity (PASK (human))?
A: 106%

Q: And the residual activity (ULK1 (human))?
A: 105%

Q: And the residual activity (FGFR3 (human))?
A: 95%

Q: What about the residual activity (MAP2K1 (human)) of the same compound?
A: 98%

Q: What about the residual activity (LTK (human)) of the same compound?
A: 104%

Q: What about the residual activity (MAP2K2 (human)) of the same compound?
A: 89.2%

Q: And the residual activity (STK16 (human))?
A: 87%

Q: And the residual activity (EPHB2 (human))?
A: 97.8%

Q: And the residual activity (BRSK2 (human))?
A: 89.3%

Q: What about the residual activity (LRRK2 (human)) of the same compound?
A: 93.7%

Q: And the residual activity (MAPK13 (human))?
A: 99.6%

Q: What about the residual activity (EPHB3 (human)) of the same compound?
A: 100%

Q: What about the residual activity (MAP4K2 (human)) of the same compound?
A: 112%

Q: And the residual activity (PIM2 (human))?
A: 112%

Q: And the residual activity (AKT1 (human))?
A: 109%

Q: And the residual activity (BLK (human))?
A: 99.8%

Q: And the residual activity (CLK2 (human))?
A: 87.6%

Q: What about the residual activity (CDK5 CDK5R1 p35 (human)) of the same compound?
A: 105%

Q: What about the residual activity (PHKG1 (human)) of the same compound?
A: 98.3%

Q: With `O=S(=O)(c1cccc2cnccc12)N1CCCNCC1` as the compound, how does the residual activity (DCLK2 (human)) read?
A: 83.9%

Q: And the residual activity (ULK2 (human))?
A: 101%

Q: What about the residual activity (RPS6KA1 KD1 KD2 (human)) of the same compound?
A: 89.2%

Q: What about the residual activity (EPHA1 (human)) of the same compound?
A: 79.9%

Q: What about the residual activity (CSF1R (human)) of the same compound?
A: 97.9%

Q: And the residual activity (MYLK2 (human))?
A: 99.6%

Q: And the residual activity (FRK (human))?
A: 78.1%

Q: And the residual activity (DSTYK (human))?
A: 90.4%

Q: What about the residual activity (CDC42BPA (human)) of the same compound?
A: 104%

Q: What about the residual activity (ACVRL1 (human)) of the same compound?
A: 111%

Q: And the residual activity (BRSK1 (human))?
A: 97.5%

Q: What about the residual activity (MAP3K10 (human)) of the same compound?
A: 88.3%

Q: What about the residual activity (INSRR (human)) of the same compound?
A: 99.7%

Q: And the residual activity (NEK9 (human))?
A: 95.9%

Q: What about the residual activity (PAK6 (human)) of the same compound?
A: 87%

Q: What about the residual activity (CAMKK2 (human)) of the same compound?
A: 95.9%

Q: And the residual activity (MAPKAPK3 (human))?
A: 99.7%

Q: And the residual activity (PASK (human))?
A: 97.1%

Q: And the residual activity (ULK1 (human))?
A: 103%

Q: What about the residual activity (FGFR3 (human)) of the same compound?
A: 94.4%

Q: What about the residual activity (MAP2K1 (human)) of the same compound?
A: 83%

Q: What about the residual activity (LTK (human)) of the same compound?
A: 95.2%

Q: And the residual activity (MAP2K2 (human))?
A: 117%

Q: What about the residual activity (STK16 (human)) of the same compound?
A: 91.7%

Q: And the residual activity (EPHB2 (human))?
A: 83.2%

Q: And the residual activity (BRSK2 (human))?
A: 91.7%

Q: What about the residual activity (LRRK2 (human)) of the same compound?
A: 94.2%

Q: And the residual activity (MAPK13 (human))?
A: 98.8%

Q: What about the residual activity (EPHB3 (human)) of the same compound?
A: 95.4%

Q: And the residual activity (MAP4K2 (human))?
A: 45.7%

Q: And the residual activity (PIM2 (human))?
A: 93.2%

Q: What about the residual activity (AKT1 (human)) of the same compound?
A: 99.3%

Q: And the residual activity (BLK (human))?
A: 85.3%

Q: What about the residual activity (CLK2 (human)) of the same compound?
A: 95.1%

Q: What about the residual activity (PHKG1 (human)) of the same compound?
A: 90.8%

Q: Which residual activity (DCLK2 (human)) does the source give for `COc1ccc(COc2ccc(Cc3cnc(N)nc3N)cc2OC)cc1` here?
A: 101%

Q: And the residual activity (ULK2 (human))?
A: 105%

Q: What about the residual activity (RPS6KA1 KD1 KD2 (human)) of the same compound?
A: 92.7%

Q: And the residual activity (EPHA1 (human))?
A: 85.7%

Q: What about the residual activity (PRKACA (human)) of the same compound?
A: 104%

Q: What about the residual activity (MYLK2 (human)) of the same compound?
A: 104%

Q: And the residual activity (DSTYK (human))?
A: 95%

Q: And the residual activity (CDC42BPA (human))?
A: 94.4%

Q: And the residual activity (ACVRL1 (human))?
A: 101%

Q: And the residual activity (BRSK1 (human))?
A: 95.6%

Q: And the residual activity (MAP3K10 (human))?
A: 96.4%

Q: What about the residual activity (INSRR (human)) of the same compound?
A: 99.4%

Q: And the residual activity (NEK9 (human))?
A: 93.3%

Q: And the residual activity (GSK3A (human))?
A: 108%

Q: And the residual activity (PAK6 (human))?
A: 94.9%

Q: What about the residual activity (RPS6KA3 KD1 KD2 (human)) of the same compound?
A: 105%

Q: And the residual activity (CAMKK2 (human))?
A: 103%

Q: And the residual activity (MARK3 (human))?
A: 103%

Q: What about the residual activity (MAPKAPK3 (human)) of the same compound?
A: 96%

Q: And the residual activity (PASK (human))?
A: 103%

Q: What about the residual activity (ULK1 (human)) of the same compound?
A: 99.7%

Q: And the residual activity (FGFR3 (human))?
A: 105%

Q: And the residual activity (MAP2K1 (human))?
A: 98.6%

Q: What about the residual activity (LTK (human)) of the same compound?
A: 100%

Q: What about the residual activity (MAP2K2 (human)) of the same compound?
A: 101%

Q: What about the residual activity (STK16 (human)) of the same compound?
A: 106%

Q: And the residual activity (EPHB2 (human))?
A: 87.4%

Q: And the residual activity (BRSK2 (human))?
A: 96.8%

Q: And the residual activity (LRRK2 (human))?
A: 92.6%

Q: And the residual activity (MAPK13 (human))?
A: 96%

Q: And the residual activity (EPHB3 (human))?
A: 91.8%

Q: And the residual activity (MAP4K2 (human))?
A: 120%

Q: And the residual activity (PIM2 (human))?
A: 107%

Q: And the residual activity (AKT1 (human))?
A: 97.4%

Q: And the residual activity (BLK (human))?
A: 98.6%

Q: What about the residual activity (CLK2 (human)) of the same compound?
A: 94.3%

Q: What about the residual activity (PHKG1 (human)) of the same compound?
A: 95.3%
